According to ChEMBL document CHEMBL4613266, “Discovery and Structure Relationships of Salicylanilide Derivatives as Potent, Non-acidic P2X1 Receptor Antagonists” (J Med Chem, 2020):
pIC50: −log10 of the molar value.

Columns and labels:
[1] = target: P2X purinoceptor 1 (Homo sapiens, UniProt P51575); test: Antagonist activity at non-desensitizing human P2X1 receptor ( P2X2/P2X1 chimera) expressed in human 1321N1 cells assessed as inhibition of ATP-induced calcium influx pre-incubated for 30 mins before ATP stimulation by FLIPR assay relative to control; format: cell-based
[2] = target: T1, P2X purinoceptor 1 (Homo sapiens) (UniProt P51575); test: Antagonist activity at non-desensitizing human P2X1 receptor ( P2X2/P2X1 chimera) expressed in human 1321N1 cells assessed as inhibition of ATP-induced calcium influx at 1 uM pre-incubated for 30 mins before ATP stimulation by FLIPR assay relative to control; format: cell-based
T1 sequence (whole entry): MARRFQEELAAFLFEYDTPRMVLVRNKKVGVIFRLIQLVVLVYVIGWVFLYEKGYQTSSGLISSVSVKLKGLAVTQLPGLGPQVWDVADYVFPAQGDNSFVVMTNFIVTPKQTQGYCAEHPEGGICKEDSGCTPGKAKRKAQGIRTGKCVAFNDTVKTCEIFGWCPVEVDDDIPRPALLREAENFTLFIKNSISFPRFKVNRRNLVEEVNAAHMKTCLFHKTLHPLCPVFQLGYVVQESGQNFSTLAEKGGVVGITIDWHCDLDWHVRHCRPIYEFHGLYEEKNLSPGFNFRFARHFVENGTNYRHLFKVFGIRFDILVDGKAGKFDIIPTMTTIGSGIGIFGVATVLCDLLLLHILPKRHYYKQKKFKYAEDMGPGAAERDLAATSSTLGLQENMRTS

[3] = target: T1, P2X purinoceptor 1 (Homo sapiens); test: Antagonist activity P2X1 receptor in human platelets assessed as inhibition of ADP-induced platelet aggregation pre-incubated for 30 mins before ADP stimulation by aggregometry relative to control; format: cell-based
[4] = target: T2, P2X purinoceptor 3 (Homo sapiens) (UniProt P56373); test: Antagonist activity at human P2X3 receptor expressed in human 1321N1 cells assessed as inhibition of ATP-induced cytosolic calcium influx at 10 uM preincubated for 30 mins followed by ATP addition by Fluo-4 AM dye-based fluorescence assay relative to control; format: cell-based
T2 sequence (whole entry): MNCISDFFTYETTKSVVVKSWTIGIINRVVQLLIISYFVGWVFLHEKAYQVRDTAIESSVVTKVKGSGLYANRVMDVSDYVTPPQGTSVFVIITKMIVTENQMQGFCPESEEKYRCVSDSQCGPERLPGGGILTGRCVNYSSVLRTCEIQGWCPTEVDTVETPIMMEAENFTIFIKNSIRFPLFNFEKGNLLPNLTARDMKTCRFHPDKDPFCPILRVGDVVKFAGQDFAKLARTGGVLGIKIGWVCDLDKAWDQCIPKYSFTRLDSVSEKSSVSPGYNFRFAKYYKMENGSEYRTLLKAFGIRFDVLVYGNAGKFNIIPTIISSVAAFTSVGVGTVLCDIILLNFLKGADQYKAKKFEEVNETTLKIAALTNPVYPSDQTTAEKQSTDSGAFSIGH

[5] = target: T3, P2X purinoceptor 2 (Homo sapiens) (UniProt Q9UBL9); test: Antagonist activity at human P2X2 receptor expressed in human 1321N1 cells assessed as inhibition of ATP-induced cytosolic calcium influx at 10 uM preincubated for 30 mins followed by ATP addition by Fluo-4 AM dye-based fluorescence assay relative to control; format: cell-based
T3 sequence (whole entry): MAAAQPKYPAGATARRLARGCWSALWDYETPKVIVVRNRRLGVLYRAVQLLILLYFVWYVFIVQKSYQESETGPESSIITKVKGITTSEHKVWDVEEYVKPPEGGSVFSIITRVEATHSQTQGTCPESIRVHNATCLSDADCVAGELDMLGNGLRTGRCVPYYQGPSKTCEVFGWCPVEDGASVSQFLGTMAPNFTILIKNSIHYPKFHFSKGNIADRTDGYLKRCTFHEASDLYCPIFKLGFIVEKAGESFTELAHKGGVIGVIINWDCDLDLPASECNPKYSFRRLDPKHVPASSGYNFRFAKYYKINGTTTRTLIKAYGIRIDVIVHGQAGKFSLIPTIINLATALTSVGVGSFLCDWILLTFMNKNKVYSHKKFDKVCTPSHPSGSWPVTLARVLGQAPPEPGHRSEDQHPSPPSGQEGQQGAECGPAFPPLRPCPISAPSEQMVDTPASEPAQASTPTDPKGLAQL

[6] = target: T1, P2X purinoceptor 1 (Homo sapiens); test: Antagonist activity P2X1 receptor in Apyrase pre-treated human platelets assessed as inhibition of TRAP6-induced platelet aggregation pre-incubated for 30 mins before TRAP6 stimulation by aggregometry relative to control; format: cell-based
[7] = target: T1, P2X purinoceptor 1 (Homo sapiens); test: Antagonist activity P2X1 receptor in Apyrase pre-treated human platelets assessed as inhibition of collagen-induced platelet aggregation pre-incubated for 30 mins before collagen stimulation by aggregometry relative to control; format: cell-based
[8] = target: T1, P2X purinoceptor 1 (Homo sapiens); test: Antagonist activity at non-desensitizing human P2X1 receptor ( P2X2/P2X1 chimera) expressed in human 1321N1 cells assessed as inhibition of ATP-induced calcium influx at 10 uM pre-incubated for 30 mins before ATP stimulation by FLIPR assay relative to control; format: cell-based
[9] = target: T1, P2X purinoceptor 1 (Homo sapiens); test: Antagonist activity at non-desensitizing human P2X1 receptor ( P2X2/P2X1 chimera) expressed in human 1321N1 cells assessed as inhibition of ATP-induced calcium influx at 100 uM pre-incubated for 30 mins before ATP stimulation by FLIPR assay relative to control; format: cell-based
[10] = target: T4, P2X purinoceptor 3 (Homo sapiens, UniProt P56373); test: Antagonist activity at human P2X3 receptor expressed in human 1321N1 cells assessed as inhibition of ATP-induced cytosolic calcium influx preincubated for 30 mins followed by ATP addition by Fluo-4 AM dye-based fluorescence assay; format: cell-based
T4 sequence (P56373 whole entry): T2 sequence (whole entry)

[11] = target: T5, P2X purinoceptor 2 (Homo sapiens, UniProt Q9UBL9); test: Antagonist activity at human P2X2 receptor expressed in human 1321N1 cells assessed as inhibition of ATP-induced cytosolic calcium influx preincubated for 30 mins followed by ATP addition by Fluo-4 AM dye-based fluorescence assay; format: cell-based
T5 sequence (Q9UBL9 whole entry): T3 sequence (whole entry)

[12] = target: T6, P2X purinoceptor 4 (Homo sapiens, UniProt Q99571); test: Antagonist activity at human P2X4 receptor expressed in human 1321N1 cells assessed as inhibition of ATP-induced cytosolic calcium influx preincubated for 30 mins followed by ATP addition by Fluo-4 AM dye-based fluorescence assay; format: cell-based
T6 sequence (Q99571 whole entry): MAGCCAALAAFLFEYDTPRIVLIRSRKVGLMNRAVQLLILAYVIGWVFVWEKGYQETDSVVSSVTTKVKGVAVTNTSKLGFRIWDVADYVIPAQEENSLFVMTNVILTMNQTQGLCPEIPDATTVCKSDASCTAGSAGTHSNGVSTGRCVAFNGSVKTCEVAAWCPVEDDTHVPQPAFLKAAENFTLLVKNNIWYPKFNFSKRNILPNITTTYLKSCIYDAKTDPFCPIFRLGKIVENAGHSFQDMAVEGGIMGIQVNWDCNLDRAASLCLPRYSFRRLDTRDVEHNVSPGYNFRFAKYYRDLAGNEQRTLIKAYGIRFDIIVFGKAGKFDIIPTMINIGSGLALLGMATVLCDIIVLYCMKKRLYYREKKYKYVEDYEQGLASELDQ

[13] = target: T7, P2X purinoceptor 7 (Homo sapiens, UniProt Q99572); test: Antagonist activity at human P2X7 receptor expressed in human 1321N1 cells assessed as inhibition of ATP-induced cytosolic calcium influx preincubated for 30 mins followed by ATP addition by Fluo-4 AM dye-based fluorescence assay; format: cell-based
T7 sequence (Q99572 whole entry): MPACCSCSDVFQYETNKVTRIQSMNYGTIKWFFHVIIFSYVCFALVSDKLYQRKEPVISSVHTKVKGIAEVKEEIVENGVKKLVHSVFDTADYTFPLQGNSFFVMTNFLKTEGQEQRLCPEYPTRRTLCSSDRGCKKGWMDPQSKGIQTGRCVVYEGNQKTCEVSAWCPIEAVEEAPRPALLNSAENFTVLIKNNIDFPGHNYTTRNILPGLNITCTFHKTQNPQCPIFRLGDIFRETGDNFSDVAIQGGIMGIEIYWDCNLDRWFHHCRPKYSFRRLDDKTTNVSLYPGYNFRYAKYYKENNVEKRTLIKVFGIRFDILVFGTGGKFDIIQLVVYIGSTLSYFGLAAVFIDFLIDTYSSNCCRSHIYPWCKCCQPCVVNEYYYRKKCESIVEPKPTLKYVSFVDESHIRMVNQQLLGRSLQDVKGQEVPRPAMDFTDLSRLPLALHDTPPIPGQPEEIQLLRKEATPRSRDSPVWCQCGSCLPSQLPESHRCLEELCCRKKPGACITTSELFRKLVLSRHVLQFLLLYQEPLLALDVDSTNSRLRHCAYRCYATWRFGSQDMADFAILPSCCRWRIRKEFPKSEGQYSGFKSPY

[14] = target: T8, P2X purinoceptor 1 (Rattus norvegicus, UniProt P47824); test: Antagonist activity at rat P2X1 receptor
T8 sequence (P47824 whole entry): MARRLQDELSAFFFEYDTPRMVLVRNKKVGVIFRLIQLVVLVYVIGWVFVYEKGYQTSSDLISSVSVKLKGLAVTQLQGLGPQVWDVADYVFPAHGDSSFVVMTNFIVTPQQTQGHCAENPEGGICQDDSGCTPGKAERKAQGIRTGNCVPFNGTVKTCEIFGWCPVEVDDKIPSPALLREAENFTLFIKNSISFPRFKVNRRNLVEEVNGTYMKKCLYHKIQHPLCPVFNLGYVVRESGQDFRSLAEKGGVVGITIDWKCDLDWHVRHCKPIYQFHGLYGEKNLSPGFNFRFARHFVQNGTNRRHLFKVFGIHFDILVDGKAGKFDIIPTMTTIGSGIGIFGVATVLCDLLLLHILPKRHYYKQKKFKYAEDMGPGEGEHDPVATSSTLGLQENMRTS

| SMILES | pIC50 [1] | inhibition [3] [%] | inhibition [4] [%] | inhibition [5] [%] | inhibition [8] [%] | other results |
| --- | --- | --- | --- | --- | --- | --- |
| COc1ccc(Cl)cc1C(=O)Nc1cc(C(F)(F)F)cc(C(F)(F)F)c1 | < 6.00 |  |  |  |  | inhibition [2]: 17% |
| O=C(Nc1ccc(C(F)(F)F)cc1)c1cc(Cl)ccc1O |  | 23 | -6 | 3 | 53 | inhibition [6]: 6%; inhibition [7]: 7% |
| O=C(Nc1cc(C(F)(F)F)cc(C(F)(F)F)c1)N1CCCc2cccc(O)c21 | 4.98 |  |  |  |  | inhibition [9]: 77% |
| O=C(Nc1cc(C(F)(F)F)cc(C(F)(F)F)c1)c1ccccc1O | 7.11 |  | 30 | 15 | 79 | pIC50 [10]: < 5.00; pIC50 [11]: < 5.00; pIC50 [12]: 6.81; pIC50 [13]: 6.50 |
| O=C(Nc1cc(C(=O)Nc2ccc(S(=O)(=O)O)cc2S(=O)(=O)O)cc(C(=O)Nc2ccc(S(=O)(=O)O)cc2S(=O)(=O)O)c1)Nc1cc(C(=O)Nc2ccc(S(=O)(=O)O)cc2S(=O)(=O)O)cc(C(=O)Nc2ccc(S(=O)(=O)O)cc2S(=O)(=O)O)c1 |  |  |  |  | 100 | pIC50 [14]: 9.55 |
| N#Cc1cccc(NC(=O)c2cc(Cl)ccc2O)c1 | 6.28 |  |  |  |  | inhibition [2]: 60% |
| O=C(Nc1cc(C(F)(F)F)cc(C(F)(F)F)c1)c1ccccc1 | 5.65 | 47 |  |  | 79 |  |
| O=C(Nc1cccc(OC(F)(F)F)c1)c1cc(Cl)ccc1O | 5.12 |  |  |  |  | inhibition [9]: 100% |
| O=C(Nc1cccc(C(F)(F)F)c1)c1cc(Cl)ccc1O | 7.04 |  | 4 | 5 | 75 | pIC50 [10]: < 5.00; pIC50 [11]: < 5.00; pIC50 [12]: 6.27; pIC50 [13]: 5.20 |
| O=S(=O)(Nc1cc(C(F)(F)F)cc(C(F)(F)F)c1)c1cc(Cl)ccc1O | 6.36 | 27 |  |  | 80 | inhibition [6]: 8% |
